Key:
[1] = test system: B6CBA-Tg(HDexon1)62Gpb/1J transgenic (R6/2) mice; test: Simplified Irwin test in transgenic mice model of Huntington's disease; assay type: in vivo
Description: B6CBA-Tg(HDexon1)62Gpb/1J transgenic (R6/2) mice are transgenic for the 5-end of the human HD gene carrying (CAG) 115-(CAG) 150 repeat expansions. […] These symptoms appear between 6 and 8 weeks of age. […] Female B6CBa-Tg(HDexon1)62Gpb/1J transgenic mice (Jackson Laboratory, USA) were housed 5 per cage in an enriched environment under a light-dark cycle of 12 h-12 h (light on at 7.00 am, off at 7.00 pm) at a room temperature of 21±2° C., with 50±15% humidity. The mice had access to commercial mouse chow (mouse/rate breeding, ref. 9341 Provimi Kliba, Switzerland) and tap water. […] Two hours before the observations, animals were placed in individual cages. Measurements were first carried out in the individual cages. The animal's convulsions, tremors-twitches, stereotypies and vocalizations were recorded. The animal was then placed in a 58.5×68.5 cm open field with a 6 cm rim and observed for approximately 3 minutes. Gait characteristics were ranked. The presence of convulsions or tremors-twitches and stereotypies was again noted. At the end of the 3 minutes, the number of faecal boluses and pools of urine was recorded. The mice were then returned to their individual cages after testing. Group 1: hemizygote Transgenic B6CBA-Tg(HDexon 1)62Gpb/1J mice treated with vehicle i.p. once a day for 4 days (from day 0 to day 3) Group 2: hemizygote Transgenic B6CBA-Tg(HDexon 1)62Gpb/1J mice treated with 5 mg/kg i.p. of test item once a day for 4 days (from day 0 to day 3) […] • Test item administration • Simplified Irwin test, 40 minutes after administration • Rotarod test, immediately after the simplified Irwin test • Test item administration • Simplified Irwin test, 40 min after administration • Rotarod test, immediately after simplified #Irwin test • Test item administration • Simplified Irwin test, 40 min after administration • Locomotor activity test, immediately after the simplified Irwin test Simplified Irwin scores were analysed using non-parametric Mann-Whitney's U test. Locomotor activity data were analysed using Dunnett's t-test. Rotarod scores were analysed using the non-parametric Mann-Whitney's U-test. Statistical analyses were performed using the software Statview SE^+graphics software, Brain Power.

[2] = biological target: 5-hydroxytryptamine isoform 1b (Homo sapiens, UniProt P28222); test: 5-hydroxytryptamine 1b inhibition; assay type: binding
5-hydroxytryptamine isoform 1b, sequence (P28222 whole entry, canonical isoform): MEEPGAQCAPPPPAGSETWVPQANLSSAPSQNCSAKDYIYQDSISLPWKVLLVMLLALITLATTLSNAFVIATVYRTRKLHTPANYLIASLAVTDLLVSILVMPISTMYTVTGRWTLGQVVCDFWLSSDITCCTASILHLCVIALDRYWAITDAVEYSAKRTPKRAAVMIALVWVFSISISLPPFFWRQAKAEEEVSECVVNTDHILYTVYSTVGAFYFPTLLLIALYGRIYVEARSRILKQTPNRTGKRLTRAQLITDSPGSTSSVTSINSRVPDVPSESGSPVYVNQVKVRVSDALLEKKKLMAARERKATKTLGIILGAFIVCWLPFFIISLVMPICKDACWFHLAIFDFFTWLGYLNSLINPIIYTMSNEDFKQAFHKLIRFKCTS

dopamine receptor = test: Dopamine receptor binding
[3] = biological target: serotonin transporter protein SERT (Homo sapiens, UniProt P31645); test: Serotonin transporter SERT inhibition; assay type: binding
serotonin transporter protein SERT, sequence (P31645 whole entry): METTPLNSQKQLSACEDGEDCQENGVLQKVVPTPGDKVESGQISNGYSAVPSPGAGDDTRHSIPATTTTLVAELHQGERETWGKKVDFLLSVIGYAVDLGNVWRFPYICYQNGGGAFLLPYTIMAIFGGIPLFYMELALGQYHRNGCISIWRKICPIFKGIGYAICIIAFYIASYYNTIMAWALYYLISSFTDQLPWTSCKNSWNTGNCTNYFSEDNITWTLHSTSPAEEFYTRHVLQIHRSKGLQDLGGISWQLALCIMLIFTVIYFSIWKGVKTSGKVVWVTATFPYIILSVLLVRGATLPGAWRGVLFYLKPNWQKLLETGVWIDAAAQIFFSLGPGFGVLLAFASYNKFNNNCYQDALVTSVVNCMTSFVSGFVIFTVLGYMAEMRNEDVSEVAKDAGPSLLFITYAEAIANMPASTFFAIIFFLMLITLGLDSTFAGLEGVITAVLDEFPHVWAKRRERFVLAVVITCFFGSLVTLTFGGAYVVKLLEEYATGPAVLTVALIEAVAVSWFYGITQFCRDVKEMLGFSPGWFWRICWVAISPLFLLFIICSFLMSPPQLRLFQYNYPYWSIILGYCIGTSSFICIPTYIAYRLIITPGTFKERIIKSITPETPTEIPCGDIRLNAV

[4] = home cage, Day 0 after administration, 5 mg/kg i.p. once a day Day 0-3
[5] = home cage, Day 0 before administration, 5 mg/kg i.p. once a day Day 0-3
[6] = home cage, Day 1, 5 mg/kg i.p. once a day Day 0-3
[7] = home cage, Day 2, 5 mg/kg i.p. once a day Day 0-3
[8] = home cage, Day 3, 5 mg/kg i.p. once a day Day 0-3
[9] = open field, Day 0 after administration, 5 mg/kg i.p. once a day Day 0-3
[10] = open field, Day 0 before administration, 5 mg/kg i.p. once a day Day 0-3
[11] = open field, Day 1, 5 mg/kg i.p. once a day Day 0-3
[12] = open field, Day 2, 5 mg/kg i.p. once a day Day 0-3
[13] = open field, Day 3, 5 mg/kg i.p. once a day Day 0-3
[14] = open field, Day 17, 5 mg/kg i.p. once a day Day 0-3
[15] = open field, Day 21, 5 mg/kg i.p. once a day Day 0-3
[16] = open field, Day 24, 5 mg/kg i.p. once a day Day 0-3
[17] = open field, Day 27, 5 mg/kg i.p. once a day Day 0-3
[18] = open field, Day 31, 5 mg/kg i.p. once a day Day 0-3
[19] = period of 17 to 24 days after administration

## COc1cc2c(cc1OC)[C@H]1C[C@H](O)[C@@H](CC(C)C)CN1CC2 (single isomer, unassigned) [Isomer B]
[1]; after 21 days versus prior to administration
  incidences of involuntary movements such as involuntary chorea, tremors and twitches: no worse after 21 days than they had been prior to administration
[1]; [4]
  Convulsions: 0.13
  Grooming: 7.38 s
  Stereotypies: — (Sign never observed (equivalent to 0.00 ± 0.00))
  Tremors-Twitches: 1.13
  Vocalization: — (Sign never observed (equivalent to 0.00 ± 0.00))
[1]; [5]
  Convulsions: 0.22
  Grooming: 10.00 s
  Stereotypies: — (Sign never observed (equivalent to 0.00 ± 0.00))
  Tremors-Twitches: 1.44
  Vocalization: — (Sign never observed (equivalent to 0.00 ± 0.00))
[1]; [6]
  Convulsions: — (Sign never observed (equivalent to 0.00 ± 0.00))
  Grooming (sec): — (Sign never observed (equivalent to 0.00 ± 0.00))
  Stereotypies: — (Sign never observed (equivalent to 0.00 ± 0.00))
  Tremors-Twitches: 1.00
  Vocalization: — (Sign never observed (equivalent to 0.00 ± 0.00))
[1]; [7]
  Convulsions: — (Sign never observed (equivalent to 0.00 ± 0.00))
  Grooming: 7.78 s
  Stereotypies: — (Sign never observed (equivalent to 0.00 ± 0.00))
  Tremors-Twitches: 0.78
  Vocalization: — (Sign never observed (equivalent to 0.00 ± 0.00))
[1]; [8]
  Convulsions: 0.11
  Grooming: 4.22 s
  Stereotypies: — (Sign never observed (equivalent to 0.00 ± 0.00))
  Tremors-Twitches: 1.00
  Vocalization: — (Sign never observed (equivalent to 0.00 ± 0.00))
[1]; [9]
  Convulsions: 0.67
  Defecation (N° of boluses): 1.44 N° of boluses
  Gait: 0.33
  Grooming: 3.11 s
  Stereotypies: 0.11
  Tremors-Twitches: 1.89
  Urination (N° of pools): 0.44 N° of pools
  Vocalisation: 0.22
[1]; [10]
  Convulsions: — (Sign never observed (equivalent to 0.00 ± 0.00))
  Defecation (N° of boluses): 2.56 N° of boluses
  Gait: 1.11
  Grooming: 19.44 s
  Stereotypies: — (Sign never observed (equivalent to 0.00 ± 0.00))
  Tremors-Twitches: 2.11
  Urination (N° of pools): 0.67 N° of pools
  Vocalisation: 0.44
[1]; [11]
  Convulsions: 0.11
  Defecation (N° of boluses): 0.89 N° of boluses
  Gait: 1.00
  Grooming: 7.78 s
  Stereotypies: — (Sign never observed (equivalent to 0.00 ± 0.00))
  Tremors-Twitches: 2.33
  Urination (N° of pools): 0.11 N° of pools
  Vocalisation: 0.67
[1]; [12]
  Convulsions: — (Sign never observed (equivalent to 0.00 ± 0.00))
  Defecation (N° of boluses): 1.22 N° of boluses
  Gait: 0.67
  Grooming: 20.56 s
  Stereotypies: — (Sign never observed (equivalent to 0.00 ± 0.00))
  Tremors-Twitches: 2.00
  Urination (N° of pools): 0.33 N° of pools
  Vocalisation: 0.89
[1]; [13]
  Convulsions: — (Sign never observed (equivalent to 0.00 ± 0.00))
  Defecation (N° of boluses): 1.33 N° of boluses
  Gait: 2.33
  Grooming: 12.67 s
  Stereotypies: — (Sign never observed (equivalent to 0.00 ± 0.00))
  Tremors-Twitches: 1.78
  Urination (N° of pools): 0.11 N° of pools
  Vocalisation: 0.89
[1]; [14]
  Convulsions: 0.67
  Defecation (N° of boluses): 2.67 N° of boluses
  Gait: 1.56
  Grooming: 20.33 s
  Stereotypies: — (Sign never observed (equivalent to 0.00 ± 0.00))
  Tremors-Twitches: 1.44
  Urination (N° of pools): 0.22 N° of pools
  Vocalisation: 0.22
[1]; [15]
  Convulsions: — (Sign never observed (equivalent to 0.00 ± 0.00))
  Defecation (N° of boluses): 2.44 N° of boluses
  Gait: 1.67
  Grooming: 17.67 s
  Stereotypies: — (Sign never observed (equivalent to 0.00 ± 0.00))
  Tremors-Twitches: 1.67
  Urination (N° of pools): 0.11 N° of pools
  Vocalisation: 0.44
[1]; [16]
  Convulsions: — (Sign never observed (equivalent to 0.00 ± 0.00))
  Defecation (N° of boluses): 1.33 N° of boluses
  Gait: 2.17
  Grooming: 18.22 s
  Stereotypies: — (Sign never observed (equivalent to 0.00 ± 0.00))
  Tremors-Twitches: 2.44
  Urination (N° of pools): 0.33 N° of pools
  Vocalisation: 0.44
[1]; [17]
  Convulsions: — (Sign never observed (equivalent to 0.00 ± 0.00))
  Defecation (N° of boluses): 2.33 N° of boluses
  Gait: 2.56
  Grooming: 25.33 s
  Stereotypies: — (Sign never observed (equivalent to 0.00 ± 0.00))
  Tremors-Twitches: 2.11
  Urination (N° of pools): 0.44 N° of pools
  Vocalisation: 0.00
[1]; [18]
  Convulsions: — (Sign never observed (equivalent to 0.00 ± 0.00))
  Defecation (N° of boluses): 1.44 N° of boluses
  Gait: 2.33
  Grooming: 19.11 s
  Stereotypies: — (Sign never observed (equivalent to 0.00 ± 0.00))
  Tremors-Twitches: 2.67
  Urination (N° of pools): 0.11 N° of pools
  Vocalisation: 0.22
[1]; [19]
  deterioration (progression of symptoms) versus control mice: significantly less deterioration than the control mice
  deterioration in gait: substantially arrested or slowed
[1]; transgenic mouse model of Huntington's disease
  progression of symptoms of Huntington's disease (involuntary movements, deterioration in gait): shown to arrest the progression of a number of symptoms of Huntington's disease
[2]
  inhibitory activity against 5-hydroxytryptamine isoform 1b: no inhibitory activity
Dopamine receptor
  dopamine receptor binding activity: only weak or non-existent
[3]
  inhibition of the serotonin transporter protein SERT: potent inhibitors

— patent US20080319000A1, “Use of 3,1IB-Cis-Dihydrotetrabenazine for the Treatment of Symptoms of Huntingtons Disease” (CAMBRIDGE LABORATORIES (IRELAND) LIMITED, priority 2005, published 2008)
